Assay results published in patent US20200261440A1, “ZINC IONOPHORES AND USES THEREOF” (THE UNIVERSITY OF QUEENSLAND, priority 2017, published 2020).
Converted amounts (≈) assume the structure as drawn. “Also recorded” adds a separate entry of the source. Read-outs that look alike come from different tables or passages of the source.

Legend:
[1] = tested on: Streptococcus pneumoniae 23F; assay: MIC by broth microdilution (CLSI); format: cell-based
[2] = tested on: Klebsiella pneumoniae strain MS6771; assay: MIC by broth microdilution (CLSI); format: cell-based; settings: Klebsiella pneumoniae, read-out: MIC
[3] = tested on: Methicillin-resistant Staphylococcus aureus (MRSA) strain USA300; assay: MIC by broth microdilution (CLSI); settings: for antibiotic sensitivity of resistant strain: addition of sub-inhibitory PBT2+zinc(II) ions; for MIC: Staphylococcus aureus
Experimental: GAS HKU16, MRSA USA300, VRE RBWH1, Klebsiella pneumoniae strain MS6771, E. coli strain MS8345 and Streptococcus pneumoniae strain 23F were grown in Todd-Hewitt broth (THB) or agar with 1% yeast extract (THY) [Todd, E. W. & Hewitt, L. F. A new culture medium for the production of antigenic streptococcal haemolysin. […] Bacteria were routinely grown at 37° C. in ambient air.
MICs were determined by broth microdilution in accordance to CLSI guidelines (“Methods for Dilution Antimicrobial Susceptibility Tests for Bacteria That Grow Aerobically”, Clinical and Laboratory Standards Institute) [Clinical and Laboratory Standards Institute. […] For MRSA, VRE, Klebsiella pneumoniae and E. coli the assays were performed in MHB, and for GAS and Streptococcus pneumoniae MHB+2.5% lysed horse blood (LHB) was used. The bacterial inoculum was prepared by direct colony suspension aiming for 2-8×10^5 colony forming units (CFU)/mL bacteria per well. Antibiotics/compounds were serially diluted two-fold across the 96-well plate, the last column contained no antibiotics/compounds. The inoculum was added to the plate containing antibiotic/compound and incubated for 16-24 h at 35+/−2° C. […] MIC assays were carried out in biological triplicates.
Using Clinical and Laboratory Standards Institute guidelines for antimicrobial sensitivity testing [Clinical and Laboratory Standards Institute.

[4] = tested on: Vancomycin-resistant Enterococci (VRE) clinical isolate RBWH1; assay: MIC by broth microdilution (CLSI); format: cell-based, Enterococcus; settings: Enterococcus, VRE, read-out: MIC
Experimental: (§1) J. Path. Bact. […] Proc. Soc.
(§2) MIC assays were carried out in biological triplicates.
(§3) M100 Performance Standards for Antimicrobial Susceptibility Testing, 27th Edition.

[5] = tested on: GAS strain HKU16 (Streptococcus pyogenes strain HKU16); assay: microbe, parasite or virus in culture; format: cell-based; settings: GAS
Experimental: as §1, §2, §3

[6] = Streptococcus pneumoniae, 23F, PBT2: 0 μM, Zinc: 0 μM, read-out: MIC
[7] = Streptococcus pneumoniae, 23F, PBT2: 8 μM, Zinc: 32 μM, read-out: MIC
[8] = Streptococcus pneumoniae, 23F, PBT2: 8 μM, read-out: MIC
[9] = Streptococcus pneumoniae, 23F, Zinc: 32 μM, read-out: MIC
[10] = MS6771, Klebsiella pneumoniae, CQ: 0 μM, Zinc: 0 μM
[11] = MS6771, Klebsiella pneumoniae, CQ: 64 μM, Zinc: 256 μM
[12] = MS6771, Klebsiella pneumoniae, CQ: 64 μM
[13] = MS6771, Klebsiella pneumoniae, PBT2: 0 μM, Zinc: 0 μM
[14] = MS6771, Klebsiella pneumoniae, PBT2: 64 μM, Zinc: 256 μM
[15] = MS6771, Klebsiella pneumoniae, PBT2: 64 μM
[16] = MS6771, Klebsiella pneumoniae, Zinc: 256 μM (CQ panel)
[17] = MS6771, Klebsiella pneumoniae, Zinc: 256 μM (PBT2 panel)
[18] = MRSA USA300, CQ: 0 μM, Zinc: 0 μM
[19] = MRSA USA300, CQ: 1 μM, Zinc: 32 μM
[20] = MRSA USA300, PBT2: 0 μM, Zinc: 0 μM
[21] = MRSA USA300, PBT2: 2 μM, Zinc: 50 μM
[22] = MRSA|USA300, MRSA, RA-HQ-12: 3.5 μM, oxacillin with 2% NaCl
[23] = MS6771, K. pneumoniae, RA-HQ-12: 0 μM, Zn: 0 μM
[24] = MS6771, K. pneumoniae, RA-HQ-12: 16 μM, Zn: 64 μM
[25] = MS6771, K. pneumoniae, RA-HQ-12: 16 μM
[26] = MS6771, K. pneumoniae, Zn: 64 μM
[27] = MRSA|USA300, MRSA, RA-HQ-12: 3.5 μM, Zn: […], oxacillin with 2% NaCl
[28] = MRSA|USA300, MRSA, RA-HQ-12: 0 μM, Zn: 0 μM, oxacillin with 2% NaCl
[29] = MRSA|USA300, MRSA USA300, CQ: 0.75 μM, Zinc: 16 μM, +2% NaCl
[30] = MRSA|USA300, MRSA USA300, PBT2: 2 μM, Zinc: 25 μM, +2% NaCl

Compound	MIC [1, 6] [µg/mL]	MIC [1, 7] [µg/mL]	MIC [1, 8] [µg/mL]	MIC [1, 9] [µg/mL]	MIC [2, 10] [µg/mL]	MIC [2, 11] [µg/mL]	MIC [2, 12] [µg/mL]	MIC [2, 13] [µg/mL]	MIC [2, 14] [µg/mL]	MIC [2, 15] [µg/mL]	MIC [2, 16] [µg/mL]	MIC [2, 17] [µg/mL]	antibiotic sensitivity of resistant strain ([3]; MRSA USA300)	MIC [3, 22] [µg/mL]	MIC [2, 23] [µg/mL]	MIC [2, 24] [µg/mL]	MIC [2, 25] [µg/mL]	MIC [2, 26] [µg/mL]	also measured
gentamicin																			MIC ([1]; PBT2: 0 μM, Zinc: 0 μM): 64 µg/mL; MIC ([1]; PBT2: 8 μM): 4 µg/mL; MIC ([1]; PBT2: 8 μM, Zinc: 32 μM): 1 µg/mL; MIC ([1]; Zinc: 32 μM): 64 µg/mL
O=C(N[C@H](CO)[C@H](O)c1ccc([N+](=O)[O-])cc1)C(Cl)Cl [Chloramphenicol, chloramphenicol]	16 (≈ 49.5 µM)	2 (≈ 6.19 µM)	16 (≈ 49.5 µM)	16 (≈ 49.5 µM)	128 (≈ 396 µM)	64 (≈ 198 µM)	64 (≈ 198 µM)	128 (≈ 396 µM)	128 (≈ 396 µM)	128 (≈ 396 µM)	128 (≈ 396 µM)	128 (≈ 396 µM)							antibiotic sensitivity of resistant strain ([1]; addition of sub-inhibitory PBT2+zinc(II) ions): became sensitive
CC[C@H]1OC(=O)[C@H](C)[C@@H](O[C@H]2C[C@@](C)(OC)[C@@H](O)[C@H](C)O2)[C@H](C)[C@@H](O[C@@H]2O[C@H](C)C[C@H](N(C)C)[C@H]2O)[C@](C)(O)C[C@@H](C)C(=O)[C@H](C)[C@@H](O)[C@]1(C)O [Erythromycin, erythromycin]													became sensitive; also recorded: reversed	64 (≈ 87.2 µM)					MIC [3, 18]: 64 µg/mL (≈ 87.2 µM); MIC ([3]; MRSA USA300, CQ: 1 μM): 64 µg/mL (≈ 87.2 µM); MIC [3, 19]: 1 µg/mL (≈ 1.36 µM); MIC [3, 20]: 64 µg/mL (≈ 87.2 µM); MIC ([3]; MRSA USA300, PBT2: 2 μM): 32 µg/mL (≈ 43.6 µM); MIC [3, 21]: 0.5 µg/mL (≈ 0.681 µM); MIC ([3]; MRSA USA300, Zinc: 32 μM): 64 µg/mL (≈ 87.2 µM); MIC ([3]; MRSA USA300, Zinc: 50 μM): 64 µg/mL (≈ 87.2 µM)
CC[C@H]1OC(=O)[C@H](C)[C@@H](O[C@H]2C[C@@](C)(OC)[C@@H](O)[C@H](C)O2)[C@H](C)[C@@H](O[C@@H]2O[C@H](C)C[C@H](N(C)C)[C@H]2O)[C@](C)(O)C[C@@H](C)CN(C)[C@H](C)[C@@H](O)[C@]1(C)O [Azithromycin, azithromycin]														64 (≈ 85.4 µM)	32 (≈ 42.7 µM)	32 (≈ 42.7 µM)	32 (≈ 42.7 µM)	32 (≈ 42.7 µM)	MIC ([4]; RA-HQ-12: 3.5 μM, Zn: […]): > 128 µg/mL; MIC ([4]; RA-HQ-12: 3.5 μM): > 128 µg/mL; MIC ([4]; Zn: […] (RA-HQ-12 panel)): > 128 µg/mL; MIC ([4]; RA-HQ-12: 0 μM, Zn: 0 μM): > 128 µg/mL; MIC ([5]; Streptococcus pyogenes, RA-HQ-12: 0 μM, Zn: 0 μM, read-out: MIC): > 128 µg/mL; MIC [3]: 128 µg/mL (≈ 171 µM); MIC [3, 27]: 32 µg/mL (≈ 42.7 µM)
CN(C)[C@@H]1C(O)=C(C(N)=O)C(=O)[C@@]2(O)C(O)=C3C(=O)c4c(O)cccc4[C@@](C)(O)[C@H]3C[C@@H]12 [Tetracycline, tetracycline]	32 (≈ 72 µM)	1 (≈ 2.25 µM)	32 (≈ 72 µM)	32 (≈ 72 µM)	32 to 64 (≈ 72 to 144 µM)	4 to 8 (≈ 9 to 18 µM)	16 (≈ 36 µM)	16 to 32 (≈ 36 to 72 µM)	4 (≈ 9 µM)	8 (≈ 18 µM)	8 (≈ 18 µM)	8 (≈ 18 µM)			32 (≈ 72 µM)	32 (≈ 72 µM)	32 (≈ 72 µM)	32 (≈ 72 µM)	MIC ([4]; VRE RBWH1, CQ: 2.5 μM, Zinc: 32 μM): 1 to 2 µg/mL (≈ 2.25 to 4.5 µM); MIC [3, 28]: 0.5 µg/mL (≈ 1.13 µM)
CC1(C)S[C@@H]2[C@H](NC(=O)[C@H](N)c3ccccc3)C(=O)N2[C@H]1C(=O)O [Ampicillin, ampicillin]	8 (≈ 22.9 µM)	1 (≈ 2.86 µM)	8 (≈ 22.9 µM)	8 (≈ 22.9 µM)	> 128	> 128	> 128	> 128	> 128	> 128	> 128	> 128	became sensitive	> 128	> 128	> 128	> 128	> 128	MIC ([4]; RA-HQ-12: 3.5 μM, Zn: […]): > 128 µg/mL; MIC ([4]; RA-HQ-12: 3.5 μM): > 128 µg/mL; MIC ([4]; Zn: […] (RA-HQ-12 panel)): > 128 µg/mL; MIC ([4]; RA-HQ-12: 0 μM, Zn: 0 μM): > 128 µg/mL; MIC [3, 18]: > 128 µg/mL; MIC ([3]; MRSA USA300, CQ: 1 μM): > 128 µg/mL; MIC [3, 19]: 1 µg/mL (≈ 2.86 µM); MIC [3, 20]: > 128 µg/mL; MIC ([3]; MRSA USA300, PBT2: 2 μM): > 128 µg/mL; MIC [3, 21]: 2 µg/mL (≈ 5.72 µM); MIC ([3]; MRSA USA300, Zinc: 32 μM): > 128 µg/mL; MIC ([3]; MRSA USA300, Zinc: 50 μM): > 128 µg/mL; MIC [3, 28]: > 128 µg/mL; MIC [3, 27]: > 128 µg/mL
COc1cccc(OC)c1C(=O)N[C@@H]1C(=O)N2[C@@H]1SC(C)(C)[C@@H]2C(=O)O [Methicillin, methicillin]																			MIC ([3]; MRSA USA300, CQ: 0 μM, Zinc: 0 μM, +2% NaCl): > 128 µg/mL; MIC ([3]; MRSA USA300, CQ: 0.75 μM, +2% NaCl): > 128 µg/mL; MIC ([3]; MRSA USA300, PBT2: 2 μM, +2% NaCl): > 128 µg/mL; MIC ([3]; MRSA USA300, Zinc: 16 μM, +2% NaCl): > 128 µg/mL; MIC ([3]; MRSA USA300, Zinc: 25 μM, +2% NaCl): > 128 µg/mL; MIC [3, 29]: > 128 µg/mL; MIC ([3]; MRSA|USA300, MRSA USA300, PBT2: 0 μM, Zinc: 0 μM, +2% NaCl): > 128 µg/mL; MIC [3, 30]: > 128 µg/mL
Cc1onc(-c2ccccc2)c1C(=O)N[C@@H]1C(=O)N2[C@@H]1SC(C)(C)[C@@H]2C(=O)O [Oxacillin, oxacillin]													became sensitive						MIC ([5]; RA-HQ-12: 3.5 μM): 0.125 µg/mL (≈ 0.311 µM); MIC [3, 29]: 0.5 to 1 µg/mL (≈ 1.25 to 2.49 µM); MIC [3, 30]: 1 to 2 µg/mL (≈ 2.49 to 4.98 µM)
